Experimental data reported in the supplement of paper PMC11061612.

Tests used:
[1] = test system: KMRC-20 (Kidney Carcinoma); test: combination Emax (second highest fraction inhibited in the dose matrix, 72 h); higher = more inhibition; extreme values may be limits of the assay
In short: (§1)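 After 24 hours at 37°C and 5% CO2 in 1536-well plates, cells in DMEM/F12 or RPMI plus 10% FBS received two-drug dose matrices for 72 hours. Viability came from CellTiter-Glo 2.0 luminescence and was scaled as inhibition, anchored at 0 by vehicle wells and at 1 by blank wells. Combination Emax is taken as the second-highest inhibition in the matrix, and Bliss excess as the observed combination effect less EA + EB − EA·EB, with EA and EB the single-agent effects.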

[2] = test system: BE-13 (T-Lymphoblastic Leukemia); test: as above
In short: as §1

[3] = test system: LS-123 (Colorectal Carcinoma); test: as above
In short: as §1

[4] = test system: ESS-1 (Other Solid Carcinomas); test: as above
In short: as §1

[5] = test system: NUGC-4 (Gastric Carcinoma); test: as above
In short: as §1

NCI-H2052 (Mesothelioma) = test: as above
In short: as §1

[6] = test system: OE21 (Esophageal Squamous Cell Carcinoma); test: as above
In short: as §1

[7] = test system: KYAE-1 (Esophageal Adenocarcinoma); test: as above
In short: as §1

EW-11 (Ewing's Sarcoma) = test: as above
In short: as §1

CAL-72 (Osteosarcoma) = test: as above
In short: as §1

[8] = test system: SAS (Oral Cavity Carcinoma); test: as above
In short: as §1

[9] = test system: HuCCT1 (Biliary Tract Carcinoma); test: as above
In short: as §1

[10] = test system: SW1710 (Bladder Carcinoma); test: as above
In short: as §1

A673 (Ewing's Sarcoma) [11] = test: as above
In short: as §1

[12] = test system: WSU-NHL (B-Cell Non-Hodgkin's Lymphoma); test: as above
In short: as §1

[13] = test system: SW1573 (Lung Adenocarcinoma); test: Bliss excess, mean over the matrix (fraction); higher = more synergy
In short: as §1

[14] = test system: LNZTA3WT4 (Low Grade Glioma); test: as above
In short: as §1

[15] = test system: NCI-H209 (Small Cell Lung Carcinoma); test: as above
In short: as §1

[16] = test system: Hs-746T (Gastric Carcinoma); test: as above
In short: as §1

A673 (Ewing's Sarcoma) [17] = test: as above
In short: as §1
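Wherever Bliss excess, mean over the matrix is given: after 72 h of two-drug dosing.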

Row | SMILES | combination Emax [1] | combination Emax [2] | combination Emax [3] | combination Emax [4] | combination Emax [5] | combination Emax (NCI-H2052 (Mesothelioma)) | combination Emax [6] | combination Emax [7] | combination Emax (EW-11 (Ewing's Sarcoma)) | combination Emax (CAL-72 (Osteosarcoma)) | combination Emax [8] | combination Emax [9] | combination Emax [10] | combination Emax (A673 (Ewing's Sarcoma) [11]) | combination Emax [12] | Bliss excess [13] | Bliss excess [14] | Bliss excess [15] | Bliss excess [16] | Bliss excess (A673 (Ewing's Sarcoma) [17])
1 | Cc1c2c(nn1C)CSCc1cc(n(C)n1)CSc1cc(c3ccccc3c1)OCCCc1c(C(=O)O)n(C)c3c-2c(Cl)ccc13 [AZD5991] + C1CN(CCC1(C(=O)N[C@@H](CCO)C2=CC=C(C=C2)Cl)N)C3=NC=NC4=C3C=CN4 [Capivasertib] (first compound max 1 µM, 7x7, partner max 3 µM) | 0.223 | 0.38 | 0.281 | 0.366 | 0.215 | 0.265 | 0.631 | 0.334 | 0.897 | 0.415 | 0.189 | 0.162 | 0.256 | 0.421 | 0.9 | -0.0587 | 0.0495 | 0.0273 | 0.0327 | 0.0001
2 | Cc1c2c(nn1C)CSCc1cc(n(C)n1)CSc1cc(c3ccccc3c1)OCCCc1c(C(=O)O)n(C)c3c-2c(Cl)ccc13 [AZD5991] + C=CCn1c(=O)c2cnc(Nc3ccc(N4CCN(C)CC4)cc3)nc2n1-c1cccc(C(C)(C)O)n1 [AZD1775] (first compound max 1 µM, partner max 1 µM) | 0.638 | 1 | 0.66 | 0.988 | 0.47 | 0.346 | 0.719 | 0.668 | 0.863 | 0.782 | 0.625 | 0.759 | 0.344 | 0.614 | 0.954 | -0.0337 | -0.0292 | 0.0103 | -0.0096 | 0.0002
3 | Cc1c2c(nn1C)CSCc1cc(n(C)n1)CSc1cc(c3ccccc3c1)OCCCc1c(C(=O)O)n(C)c3c-2c(Cl)ccc13 [AZD5991] + CC1(C)CCC(CN2CCN(c3ccc(C(=O)NS(=O)(=O)c4ccc(NCC5CCOCC5)c([N+](=O)[O-])c4)c(Oc4cnc5[nH]ccc5c4)c3)CC2)=C(c2ccc(Cl)cc2)C1 [Venetoclax] (first compound max 1 µM, 7x7, partner max 1 µM) | 0.162 | 0.916 | 0.142 | 0.39 | 0.178 | 0.229 | 0.454 | 0.225 | 0.975 | 0.423 | 0.184 | 0.203 | 0.168 | 0.868 | 0.975 | -0.0549 | 0.0364 | 0.241 | -0.0882 | 0.0666
4 | Cc1c2c(nn1C)CSCc1cc(n(C)n1)CSc1cc(c3ccccc3c1)OCCCc1c(C(=O)O)n(C)c3c-2c(Cl)ccc13 [AZD5991] + CCN(CCO)CCCOc1ccc2c(Nc3cc(CC(=O)Nc4cccc(F)c4)[nH]n3)ncnc2c1 [AZD2811] (first compound max 1 µM, 7x7, partner max 1 µM) | 0.312 | 0.929 | 0.229 | 0.733 | 0.22 | 0.265 | 0.522 | 0.296 | 0.872 | 0.473 | 0.268 | 0.267 | 0.228 | 0.946 | 0.92 | 0.0108 | 0.038 | 0.191 | -0.0477 | 0.0886
5 | Cc1c2c(nn1C)CSCc1cc(n(C)n1)CSc1cc(c3ccccc3c1)OCCCc1c(C(=O)O)n(C)c3c-2c(Cl)ccc13 [AZD5991] + CN(C)CCCOc1ccc(-c2ccc3ncc4c(c3c2)n(C2CCOCC2)c(=O)n4C)cn1 [AZD0156] (first compound max 1 µM, 7x7, partner max 1 µM) | 0.218 | 0.445 | 0.162 | 0.36 | 0.238 | 0.285 | 0.345 | 0.177 | 0.803 | 0.328 | 0.268 | 0.286 | 0.219 | 0.438 | 0.92 | -0.0245 | -0.0135 | 0.008 | 0.0008 | 0.0293
6 | Cc1c2c(nn1C)CSCc1cc(n(C)n1)CSc1cc(c3ccccc3c1)OCCCc1c(C(=O)O)n(C)c3c-2c(Cl)ccc13 [AZD5991] + C[C@@H](Nc1cc(F)cc(F)c1)c1cc(C(=O)N(C)C)cc2c(=O)cc(N3CCOCC3)oc12 [AZD8186] (first compound max 1 µM, 7x7, partner max 3 µM) | 0.262 | 0.384 | 0.336 | 0.372 | 0.374 | 0.374 | 0.397 | 0.209 | 0.906 | 0.365 | 0.321 | 0.4 | 0.307 | 0.557 | 0.987 | -0.0565 | 0.0055 | -0.0154 | 0.0106 | 0.0129
7 | Cc1c2c(nn1C)CSCc1cc(n(C)n1)CSc1cc(c3ccccc3c1)OCCCc1c(C(=O)O)n(C)c3c-2c(Cl)ccc13 [AZD5991] + Cn1cnc2c(F)c(Nc3ccc(Br)cc3Cl)c(C(=O)NOCCO)cc21 [Selumetinib] (first compound max 1 µM, 7x7, partner max 3 µM) | 0.196 | 0.449 | 0.455 | 0.224 | 0.616 | 0.314 | 0.469 | 0.163 | 0.76 | 0.406 | 0.44 | 0.508 | 0.256 | 0.671 | 0.934 | -0.0427 | 0.0046 | -0.0778 | -0.018 | 0.12
8 | C[C@@H]1COCCN1c1cc(C2([S@](C)(=N)=O)CC2)nc(-c2ccnc3[nH]ccc23)n1 [AZD6738] + O=C(c1cc(Cc2n[nH]c(=O)c3ccccc23)ccc1F)N1CCN(C(=O)C2CC2)CC1 [Olaparib] (first compound max 10 µM, 7x7, partner max 10 µM) | 0.542 | 0.702 | 0.764 | 0.979 | 0.551 | 0.478 | 0.661 | 0.139 | 0.72 | 0.8 | 0.839 | 0.784 | 0.495 | 0.89 | 0.989 | -0.0044 | -0.0197 | -0.0599 | 0.0101 | 0.0381
9 | NC1(C(=O)N[C@@H](CCO)c2ccc(Cl)cc2)CCN(c2ncnc3[nH]ccc23)CC1 [Capivasertib] + CC(=O)c1c(C)c2cnc(Nc3ccc(N4CCNCC4)cn3)nc2n(C2CCCC2)c1=O [Palbociclib] (first compound max 10 µM, 7x7, partner max 10 µM) | 0.372 | 0.507 | 0.364 | 0.593 | 0.305 | 0.419 | 0.714 | 0.162 | 0.496 | 0.481 | 0.575 | 0.43 | 0.447 | 0.271 | 0.899 | -0.0253 | 0.0103 | -0.0433 | -0.0322 | -0.018
10 | NC1(C(=O)N[C@@H](CCO)c2ccc(Cl)cc2)CCN(c2ncnc3[nH]ccc23)CC1 [Capivasertib] + CC(C)n1c(=O)n(C)c2cnc3cc(F)c(-c4ccc(OCCCN5CCCCC5)nc4)cc3c21 [AZD1390] (first compound max 10 µM, 7x7, partner max 0.3 µM) | 0.336 | 0.296 | 0.325 | 0.46 | 0.145 | 0.407 | 0.621 | 0.109 | 0.511 | 0.265 | 0.26 | 0.24 | 0.348 | 0.292 | 0.882 | -0.0724 | -0.0189 | -0.037 | -0.0445 | -0.0885
11 | NC1(C(=O)N[C@@H](CCO)c2ccc(Cl)cc2)CCN(c2ncnc3[nH]ccc23)CC1 [Capivasertib] + CCN(CCO)CCCOc1ccc2c(Nc3cc(CC(=O)Nc4cccc(F)c4)[nH]n3)ncnc2c1 [AZD2811] (first compound max 10 µM, 7x7, partner max 1 µM) | 0.398 | 0.733 | 0.398 | 0.812 | 0.0827 | 0.427 | 0.642 | 0.156 | 0.611 | 0.321 | 0.299 | 0.309 | 0.36 | 0.703 | 0.966 | -0.0197 | -0.0551 | -0.0383 | -0.0265 | -0.0158
12 | NC1(C(=O)N[C@@H](CCO)c2ccc(Cl)cc2)CCN(c2ncnc3[nH]ccc23)CC1 [Capivasertib] + COc1nnc2ccc(N3CCC(c4ccc(OCCN5CCN(C)C(=O)[C@H]5C)cc4)CC3)nn12 [AZD5153] (first compound max 10 µM, 7x7, partner max 1 µM) | 0.398 | 0.644 | 0.418 | 0.738 | 0.542 | 0.427 | 0.882 | 0.223 | 0.948 | 0.481 | 0.801 | 0.609 | 0.587 | 0.434 | 1 | -0.0278 | 0.0305 | -0.0007 | 0.0169 | -0.0386
13 | NC1(C(=O)N[C@@H](CCO)c2ccc(Cl)cc2)CCN(c2ncnc3[nH]ccc23)CC1 [Capivasertib] + C[C@@H]1COCCN1C2=NC(=NC(=C2)C3(CC3)[S@](=N)(=O)C)C4=C5C=CNC5=NC=C4 [AZD6738] (first compound max 10 µM, 7x7, partner max 10 µM) | 0.647 | 0.731 | 0.457 | 0.959 | 0.469 | 0.57 | 0.858 | 0.165 | 0.753 | 0.842 | 0.829 | 0.688 | 0.596 | 0.804 | 1 | -0.0915 | -0.027 | -0.0054 | -0.0747 | 0.0077
